Source: patent US20140336182A1, “Aurora Kinase Modulators and Method of Use” (Amgen Inc., priority 2013, published 2014)
Like-named read-outs stand apart in the source and are kept apart here.

Tested on: HeLa cells
Assay: HeLa cell 24 hr ploidy assay (DNA content)
Assay type: cell-based
Details: HeLa cells, 4N ploidy, average, read-out: 24h_4NPloidy EC50_IP (uM Avg)
Summary of the method: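 HeLa cells (1×10^4/well, MEM+10% FBS) cultured 24 h, treated with serially diluted compounds (0.25% DMSO final), then fixed, permeabilized and stained with Hoechst 33342 (0.5 ug/ml). Imaging quantified % 4N and >4N cells; EC50 IP and EC50 transit derived from dose curves.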

SMILES	EC50 (Homo sapiens, HeLa)	EC50
CCOc1nc(-c2nnc(Nc3ccc(Sc4ccnc5cc(OC)cnc45)cc3)c3ccccc23)cs1 [compound 505]	0.022 µM	–
COc1cnc2c(Sc3ccc(Nc4nnc(-c5cscn5)c5ccccc45)cc3)ccnc2c1 [compound 506]	0.067 µM	–
COc1cnc2c(Sc3ccc(Nc4nnc(N5CCN(CC(F)F)CC5)c5ccccc45)cc3)ccnc2c1 [compound 507]	0.018 µM	–
COc1cnc2c(Sc3ccc(Nc4nnc(NCCCSC)c5ccccc45)cc3)ccnc2c1 [compound 508]	0.072 µM	–
COc1ccc(-c2nnc(Nc3ccc(Sc4ccnc5cccnc45)cc3)c3ccccc23)cn1 [compound 509]	0.008 µM	–
Cc1csc(-c2nnc(Nc3ccc(Oc4ccnc5cccnc45)cc3)c3cc(F)c(F)cc23)c1 [compound 510]	0.017 µM	–
COc1cnc2c(Sc3ccc(Nc4nnc(OC(C)C)c5ccccc45)cc3)ccnc2c1 [compound 511]	0.094 µM	–
CCOc1nnc(Nc2ccc(Sc3ccnc4cc(OC)cnc34)cc2)c2ccccc12 [compound 512]	0.033 µM	–
COc1cnc2c(Sc3ccc(Nc4nnc(OCC(F)(F)F)c5ccccc45)cc3)ccnc2c1 [compound 513]	0.059 µM	–
COc1cnc2c(Sc3ccc(Nc4nnc(SC)c5ccccc45)cc3)ccnc2c1 [compound 514]	0.02 µM	–
COCCOc1nnc(Nc2ccc(Sc3ccnc4cc(OC)cnc34)cc2)c2ccccc12 [compound 515]	0.018 µM	–
COc1cnc2c(Sc3ccc(Nc4nnc(-c5cccc(Cl)c5)c5ccccc45)cc3)ccnc2c1 [compound 516]	0.025 µM	–
c1ccc2c(Sc3ccc(Nc4nnc(-c5ccc6c(c5)OCO6)c5ccccc45)cc3)ccnc2c1 [compound 517]	0.011 µM	–
Clc1cccc(-c2nnc(Nc3ccc(Sc4ccnc5ccsc45)cc3)c3ccccc23)c1 [compound 518]	0.016 µM	–
COc1cnc2c(Sc3ccc(Nc4nnc(-c5ccccc5)c5ccccc45)cc3F)ccnc2c1 [compound 519]	0.009 µM	–
COc1cnc2c(Sc3ccc(Nc4nnc(N5CCCC5)c5ccccc45)cc3)ccnc2c1 [compound 521]	0.021 µM	–
COc1cnc2c(Sc3ccc(Nc4nnc(-c5ccc6c(c5)OCO6)c5ccccc45)cc3F)ccnc2c1 [compound 522]	0.001 µM	–
COc1cnc2c(Sc3ccc(Nc4nnc(N5CCC(C(F)(F)F)CC5)c5ccccc45)cc3)ccnc2c1 [compound 523]	0.006 µM	–
COc1cnc2c(Sc3ccc(Nc4nnc(N5CCC(Cl)CC5)c5ccccc45)cc3)ccnc2c1 [compound 527]	0.004 µM	–
COc1cnc2c(Sc3ccc(Nc4nnc(-c5cc(C)cs5)c5ccccc45)cc3F)ccnc2c1 [compound 528]	0.009 µM	–
COc1cnc2c(Sc3ccc(Nc4nnc(-c5ccc(C)c(OC)c5)c5ccccc45)cc3)ccnc2c1 [compound 529]	0.006 µM	–
COc1cnc2c(Sc3ccc(Nc4nnc(-c5ccc6c(c5)OCO6)c5ccccc45)cc3)ccnc2c1 [compound 530]	0.001 µM	–
COc1cnc2c(Sc3ccc(Nc4nnc(N5CCC(F)(F)CC5)c5ccccc45)cc3)ccnc2c1 [compound 531]	0.049 µM	–
COc1cnc2c(Sc3ccc(Nc4nnc(N5CCC[C@@H](OC)C5)c5ccccc45)cc3)ccnc2c1 [compound 532]	0.02 µM	–
COCCNc1nnc(Nc2ccc(Sc3ccnc4cc(OC)cnc34)cc2)c2ccccc12 [compound 533]	0.062 µM	–

SMILES	EC50 (Homo sapiens, HeLa)	EC50
COC1CCN(c2nnc(Nc3ccc(Sc4ccnc5cc(C#N)ccc45)cc3)c3ccccc23)CC1 [compound 534]	0.006 µM	–
COCCCNc1nnc(Nc2ccc(Sc3ccnc4cc(OC)cnc34)cc2)c2ccccc12 [compound 535]	0.026 µM	–
COc1cnc2c(Sc3ccc(Nc4nnc(Cl)c5ccccc45)cc3)ccnc2c1 [compound 536]	0.031 µM	–
COc1cnc2c(Sc3ccc(Nc4nnc(NCCc5ccccn5)c5ccccc45)cc3)ccnc2c1 [compound 537]	0.002 µM	–
COc1cnc2c(Sc3ccc(Nc4nnc(N5CCC(N6CCCC6)CC5)c5ccccc45)cc3)ccnc2c1 [compound 538]	0.178 µM	–
COc1cnc2c(Oc3ccc(Nc4nnc(-c5cc(F)cc(F)c5)c5ccccc45)cc3)ccnc2c1 [compound 539]	0.081 µM	–
COc1cnc2c(Sc3ccc(Nc4nnc(N5CC[C@@H](OC)C5)c5ccccc45)cc3)ccnc2c1 [compound 540]	0.013 µM	–
COc1cnc2c(Sc3ccc(Nc4nnc(C5CC5)c5ccccc45)cc3)ccnc2c1 [compound 541]	0.038 µM	–
COc1cnc2c(Oc3ccc(Nc4nncc5ccccc45)cc3)ccnc2c1 [compound 542, N-(4-((7-methoxy-1,5-naphthyridin-4-yl)oxy)phenyl)-1-phthalazinamine]	0.382 µM	–
COc1cnc2c(Oc3ccc(Nc4nnc(C5CC5)c5ccccc45)cc3)ccnc2c1 [compound 543]	0.281 µM	–
COc1cnc2c(Oc3ccc(Nc4nnc(-c5ccc(C)c(N)c5)c5cc(F)c(F)cc45)cc3)ccnc2c1 [compound 545]	0.012 µM	–
COc1ccc2nccc(Sc3ccc(Nc4nnc(N5CCCCC5)c5ccccc45)cc3)c2n1 [compound 548]	0.036 µM	–
COc1ccc2nccc(Sc3ccc(Nc4nnc(-c5cc(C)cs5)c5ccccc45)cc3)c2n1 [compound 549]	0.009 µM	–
COc1ccc2nccc(Sc3ccc(Nc4nnc(-c5ccc(Cl)cn5)c5ccccc45)cc3)c2n1 [compound 550]	0.016 µM	–
COc1ccc2nccc(Oc3ccc(Nc4nnc(-c5ccc6c(c5)OCO6)c5ccccc45)cc3)c2n1 [compound 551]	0.002 µM	–
COc1ccc2nccc(Oc3ccc(Nc4nnc(-c5cc(C)cs5)c5ccccc45)cc3)c2n1 [compound 552]	0.01 µM	–
Cc1ccc(-c2nnc(Nc3ccc(Sc4ccnc5cccnc45)cc3)c3ccccc23)cn1 [compound 553]	0.001 µM	–
COc1ccc2nccc(Oc3ccc(Nc4nnc(-c5ccc(C)cn5)c5ccccc45)cc3)c2c1 [compound 554]	0.108 µM	–
COc1cnc2c(Sc3ccc(Nc4nnc(N5CCCC(C)(C)C5)c5ccccc45)cc3)ccnc2c1 [compound 555]	0.064 µM	–
COc1cnc2c(Sc3ccc(Nc4nnc(N5CC(C)CC(C)C5)c5ccccc45)cc3)ccnc2c1 (stereo not shown) [compound 556]	0.026 µM	–
COc1cnc2c(Sc3ccc(Nc4nnc(N5CCC(F)CC5)c5ccccc45)cc3)ccnc2c1 [compound 557]	0.026 µM	–
COc1cnc2c(Sc3ccc(Nc4nnc(C(C)C)c5ccccc45)cc3)ccnc2c1 [compound 558]	0.1 µM	–
Cc1cc2nccc(Sc3ccc(Nc4nnc(-c5ccc(Cl)cc5)c5ccccc45)cc3)c2s1 [compound 559]	0.018 µM	–
Cc1cc2nccc(Sc3ccc(Nc4nnc(-c5ccc(Cl)cn5)c5ccccc45)cc3)c2s1 [compound 560]	0.023 µM	–
c1ccc(-c2nnc(Nc3ccc(Sc4ncnc5ccccc45)cc3)c3ccccc23)cc1 [compound 561]	> 1.2 µM	–

SMILES	EC50 (Homo sapiens, HeLa)	EC50
Clc1ccc(-c2nnc(Nc3ccc(Oc4ncnc5ccccc45)cc3)c3ccccc23)cc1 [compound 562]	0.026 µM	–
COc1cnc2c(Sc3ccc(Nc4nnc(N5CCN6CCC[C@H]6C5)c5ccccc45)cc3)ccnc2c1 [compound 563]	< 0.0023 µM	–
COc1ccc2ncnc(Oc3ccc(Nc4nnc(-c5ccc(Cl)cc5)c5ccccc45)cc3)c2c1 [compound 564]	0.043 µM	–
COc1ccc2ncnc(Oc3ccc(Nc4nnc(-c5cc(C)cs5)c5ccccc45)cc3)c2c1 [compound 565]	0.03 µM	–
COc1cnc2c(Oc3ccc(Nc4nnc(-c5ccc(Cl)cc5)c5ccccc45)cc3OC)ccnc2c1 [compound 566]	0.191 µM	–
COc1cnc2c(Oc3ccc(Nc4nnc(-c5cc(C)cs5)c5ccccc45)cc3OC)ccnc2c1 [compound 567]	0.227 µM	–
Cc1csc(-c2nnc(Nc3ccc(Oc4ncnc5ccccc45)cc3)c3ccccc23)c1 [compound 568]	0.034 µM	–
O=c1ccc2nccc(Oc3ccc(Nc4nnc(-c5ccc(Cl)cc5)c5ccccc45)cc3)c2[nH]1 [compound 569]	0.115 µM	–
Clc1ccc(-c2nnc(Nc3ccc(Sc4ccnc5c4CCCN5)cc3)c3ccccc23)cc1 [compound 570]	0.008 µM	–
FC(F)(F)Oc1ccc2nccc(Sc3ccc(Nc4nnc(-c5ccccc5)c5ccccc45)cc3)c2c1 [compound 571]	0.06 µM	–
Cc1csc(-c2nnc(Nc3ccc(Sc4ccnc5ccc(OC(F)(F)F)cc45)cc3)c3ccccc23)c1 [compound 572]	0.055 µM	–
COc1cc(OC)c2c(Oc3ccc(Nc4nnc(-c5cc(C)cs5)c5ccccc45)cc3)ncnc2c1 [compound 573]	0.011 µM	–
FC(F)(F)Oc1ccc2nccc(Oc3ccc(Nc4nnc(-c5ccc(Cl)cc5)c5ccccc45)cc3)c2c1 [compound 574]	0.119 µM	–
Cc1csc(-c2nnc(Nc3ccc(Oc4ccnc5ccc(OC(F)(F)F)cc45)cc3)c3ccccc23)c1 [compound 575]	0.112 µM	–
COc1cnc2c(Sc3ccc(Nc4nnc(N5CCn6ccnc6C5)c5ccccc45)cc3)ccnc2c1 [compound 576]	0.013 µM	–
c1ccc(-c2nnc(Nc3ccc(Sc4ccnc5c4CCCN5)cc3)c3ccccc23)cc1 [compound 577]	0.025 µM	–
COc1cnc2c(Sc3ccc(Nc4nnc(N5CCc6sccc6C5)c5ccccc45)cc3)ccnc2c1 [compound 578]	0.007 µM	–
COc1cnc2c(Sc3ccc(Nc4nnc(N5CCn6ncnc6C5)c5ccccc45)cc3)ccnc2c1 [compound 579]	0.054 µM	–
COc1cnc2c(Sc3ccc(Nc4nnc(N5CCN6CCCC[C@@H]6C5)c5ccccc45)cc3)ccnc2c1 [compound 580]	0.005 µM	–
COc1cc(OC)c2c(Sc3ccc(Nc4nnc(-c5ccccc5)c5ccccc45)cc3)ncnc2c1 [compound 581]	0.036 µM	–
COc1cnc2c(Sc3ccc(Nc4nnc(N5CCN6CCC[C@@H]6C5)c5ccccc45)cc3)ccnc2c1 [compound 582]	0.006 µM	–
COc1cnc2c(Sc3ccc(Nc4nnc(-c5ccc(OC)nc5)c5ccccc45)cc3)ccnc2c1 [compound 583]	0.005 µM	–
COc1cnc2c(Sc3ccc(Nc4nnc(N5CCN6CCCC[C@@H]6C5)c5ccccc45)cc3)ccnc2c1 [compound 584]	–	0.005 µM
